Key:
[1] = molecular target: T1, p300 (Homo sapiens, UniProt Q09472); assay: P300 degradation, HiBit technology in A549 P300 HiBit cells (2 h); format: cell-based; settings: 2 hrs post treatment; for Dmax: A549, A549 P300 HiBit cells; for DC50: A549 P300 HiBit cells
T1 construct: host or cells: A549 P300 HiBit cells
How it was run: (§1)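 Endogenously HiBiT-tagged A549 cells are plated, left overnight, then treated with a compound dilution series at 37 °C and 5% CO2. At the set time, lytic detection buffer is added and plates are shaken 10 min at room temperature before luminescence is measured to derive potency and Dmax.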

[2] = molecular target: T2, CBP (Homo sapiens, UniProt Q92793); assay: CBP degradation, HiBit technology in A549 CBP HiBit cells (24 h); format: cell-based; settings: 24 hrs post treatment
T2 construct: host or cells: A549 CBP HiBit cells
How it was run: as §1

T2 sequence (Q92793 whole entry): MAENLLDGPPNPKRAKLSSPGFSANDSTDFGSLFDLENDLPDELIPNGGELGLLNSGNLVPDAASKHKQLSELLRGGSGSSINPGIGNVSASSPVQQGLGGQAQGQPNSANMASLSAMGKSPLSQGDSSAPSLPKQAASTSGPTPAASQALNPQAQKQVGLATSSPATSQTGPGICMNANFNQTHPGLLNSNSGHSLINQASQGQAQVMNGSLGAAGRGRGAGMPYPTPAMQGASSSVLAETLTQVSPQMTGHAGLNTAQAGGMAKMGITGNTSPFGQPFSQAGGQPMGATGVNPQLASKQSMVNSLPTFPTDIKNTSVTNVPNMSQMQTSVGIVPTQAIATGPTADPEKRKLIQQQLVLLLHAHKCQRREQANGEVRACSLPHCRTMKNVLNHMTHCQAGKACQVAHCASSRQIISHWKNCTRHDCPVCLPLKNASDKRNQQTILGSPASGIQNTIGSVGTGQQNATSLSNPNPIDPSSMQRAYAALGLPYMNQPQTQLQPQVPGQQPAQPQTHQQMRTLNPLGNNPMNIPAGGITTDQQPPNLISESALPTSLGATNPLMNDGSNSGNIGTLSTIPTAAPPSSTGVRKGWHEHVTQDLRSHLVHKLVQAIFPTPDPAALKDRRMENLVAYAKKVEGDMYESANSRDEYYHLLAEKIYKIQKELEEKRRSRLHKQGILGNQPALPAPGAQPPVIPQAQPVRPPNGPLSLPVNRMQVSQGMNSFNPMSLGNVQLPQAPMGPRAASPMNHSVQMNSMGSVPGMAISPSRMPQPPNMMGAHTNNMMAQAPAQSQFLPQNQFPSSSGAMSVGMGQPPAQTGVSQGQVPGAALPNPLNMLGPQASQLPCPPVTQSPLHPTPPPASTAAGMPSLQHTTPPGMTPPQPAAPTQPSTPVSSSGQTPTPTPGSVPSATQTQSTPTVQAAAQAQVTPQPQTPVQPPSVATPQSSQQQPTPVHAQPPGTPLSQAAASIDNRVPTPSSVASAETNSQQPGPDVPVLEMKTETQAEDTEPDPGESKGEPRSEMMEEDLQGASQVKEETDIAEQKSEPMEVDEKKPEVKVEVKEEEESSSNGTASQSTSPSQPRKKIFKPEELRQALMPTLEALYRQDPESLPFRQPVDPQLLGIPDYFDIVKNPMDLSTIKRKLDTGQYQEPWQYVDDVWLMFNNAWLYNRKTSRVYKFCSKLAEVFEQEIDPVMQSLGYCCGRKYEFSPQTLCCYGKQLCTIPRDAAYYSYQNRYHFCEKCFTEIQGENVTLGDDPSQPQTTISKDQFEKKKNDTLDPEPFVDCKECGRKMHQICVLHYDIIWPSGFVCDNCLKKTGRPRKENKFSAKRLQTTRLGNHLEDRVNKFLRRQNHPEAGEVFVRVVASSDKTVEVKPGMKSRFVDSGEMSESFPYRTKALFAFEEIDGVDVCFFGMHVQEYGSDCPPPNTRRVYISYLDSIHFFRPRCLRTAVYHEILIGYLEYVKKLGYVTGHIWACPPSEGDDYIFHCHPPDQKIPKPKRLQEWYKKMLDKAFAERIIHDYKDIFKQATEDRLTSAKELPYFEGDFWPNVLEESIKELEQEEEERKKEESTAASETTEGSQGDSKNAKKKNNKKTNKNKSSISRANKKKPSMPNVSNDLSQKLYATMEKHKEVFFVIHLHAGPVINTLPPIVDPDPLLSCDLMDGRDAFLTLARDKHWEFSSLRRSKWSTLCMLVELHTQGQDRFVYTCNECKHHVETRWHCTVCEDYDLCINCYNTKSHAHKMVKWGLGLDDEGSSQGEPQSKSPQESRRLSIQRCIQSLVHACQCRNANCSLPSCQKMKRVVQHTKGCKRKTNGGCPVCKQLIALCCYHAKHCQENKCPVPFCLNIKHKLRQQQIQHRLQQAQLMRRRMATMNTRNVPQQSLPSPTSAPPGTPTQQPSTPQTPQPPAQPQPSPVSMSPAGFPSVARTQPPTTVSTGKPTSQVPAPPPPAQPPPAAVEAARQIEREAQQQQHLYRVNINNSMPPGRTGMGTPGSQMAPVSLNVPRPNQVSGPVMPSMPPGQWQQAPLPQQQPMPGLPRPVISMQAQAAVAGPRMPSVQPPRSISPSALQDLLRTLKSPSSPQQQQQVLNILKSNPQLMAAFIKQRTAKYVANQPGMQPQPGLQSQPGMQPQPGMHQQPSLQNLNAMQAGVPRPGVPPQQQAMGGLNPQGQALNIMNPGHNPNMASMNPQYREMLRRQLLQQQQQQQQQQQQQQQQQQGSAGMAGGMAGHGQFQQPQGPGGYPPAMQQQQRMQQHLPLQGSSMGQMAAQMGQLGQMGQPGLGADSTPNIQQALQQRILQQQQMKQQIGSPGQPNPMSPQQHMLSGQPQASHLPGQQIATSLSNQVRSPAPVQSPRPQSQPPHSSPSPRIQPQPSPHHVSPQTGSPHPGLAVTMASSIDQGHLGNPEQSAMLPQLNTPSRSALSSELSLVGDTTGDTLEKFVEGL
T1 sequence (Q09472 whole entry): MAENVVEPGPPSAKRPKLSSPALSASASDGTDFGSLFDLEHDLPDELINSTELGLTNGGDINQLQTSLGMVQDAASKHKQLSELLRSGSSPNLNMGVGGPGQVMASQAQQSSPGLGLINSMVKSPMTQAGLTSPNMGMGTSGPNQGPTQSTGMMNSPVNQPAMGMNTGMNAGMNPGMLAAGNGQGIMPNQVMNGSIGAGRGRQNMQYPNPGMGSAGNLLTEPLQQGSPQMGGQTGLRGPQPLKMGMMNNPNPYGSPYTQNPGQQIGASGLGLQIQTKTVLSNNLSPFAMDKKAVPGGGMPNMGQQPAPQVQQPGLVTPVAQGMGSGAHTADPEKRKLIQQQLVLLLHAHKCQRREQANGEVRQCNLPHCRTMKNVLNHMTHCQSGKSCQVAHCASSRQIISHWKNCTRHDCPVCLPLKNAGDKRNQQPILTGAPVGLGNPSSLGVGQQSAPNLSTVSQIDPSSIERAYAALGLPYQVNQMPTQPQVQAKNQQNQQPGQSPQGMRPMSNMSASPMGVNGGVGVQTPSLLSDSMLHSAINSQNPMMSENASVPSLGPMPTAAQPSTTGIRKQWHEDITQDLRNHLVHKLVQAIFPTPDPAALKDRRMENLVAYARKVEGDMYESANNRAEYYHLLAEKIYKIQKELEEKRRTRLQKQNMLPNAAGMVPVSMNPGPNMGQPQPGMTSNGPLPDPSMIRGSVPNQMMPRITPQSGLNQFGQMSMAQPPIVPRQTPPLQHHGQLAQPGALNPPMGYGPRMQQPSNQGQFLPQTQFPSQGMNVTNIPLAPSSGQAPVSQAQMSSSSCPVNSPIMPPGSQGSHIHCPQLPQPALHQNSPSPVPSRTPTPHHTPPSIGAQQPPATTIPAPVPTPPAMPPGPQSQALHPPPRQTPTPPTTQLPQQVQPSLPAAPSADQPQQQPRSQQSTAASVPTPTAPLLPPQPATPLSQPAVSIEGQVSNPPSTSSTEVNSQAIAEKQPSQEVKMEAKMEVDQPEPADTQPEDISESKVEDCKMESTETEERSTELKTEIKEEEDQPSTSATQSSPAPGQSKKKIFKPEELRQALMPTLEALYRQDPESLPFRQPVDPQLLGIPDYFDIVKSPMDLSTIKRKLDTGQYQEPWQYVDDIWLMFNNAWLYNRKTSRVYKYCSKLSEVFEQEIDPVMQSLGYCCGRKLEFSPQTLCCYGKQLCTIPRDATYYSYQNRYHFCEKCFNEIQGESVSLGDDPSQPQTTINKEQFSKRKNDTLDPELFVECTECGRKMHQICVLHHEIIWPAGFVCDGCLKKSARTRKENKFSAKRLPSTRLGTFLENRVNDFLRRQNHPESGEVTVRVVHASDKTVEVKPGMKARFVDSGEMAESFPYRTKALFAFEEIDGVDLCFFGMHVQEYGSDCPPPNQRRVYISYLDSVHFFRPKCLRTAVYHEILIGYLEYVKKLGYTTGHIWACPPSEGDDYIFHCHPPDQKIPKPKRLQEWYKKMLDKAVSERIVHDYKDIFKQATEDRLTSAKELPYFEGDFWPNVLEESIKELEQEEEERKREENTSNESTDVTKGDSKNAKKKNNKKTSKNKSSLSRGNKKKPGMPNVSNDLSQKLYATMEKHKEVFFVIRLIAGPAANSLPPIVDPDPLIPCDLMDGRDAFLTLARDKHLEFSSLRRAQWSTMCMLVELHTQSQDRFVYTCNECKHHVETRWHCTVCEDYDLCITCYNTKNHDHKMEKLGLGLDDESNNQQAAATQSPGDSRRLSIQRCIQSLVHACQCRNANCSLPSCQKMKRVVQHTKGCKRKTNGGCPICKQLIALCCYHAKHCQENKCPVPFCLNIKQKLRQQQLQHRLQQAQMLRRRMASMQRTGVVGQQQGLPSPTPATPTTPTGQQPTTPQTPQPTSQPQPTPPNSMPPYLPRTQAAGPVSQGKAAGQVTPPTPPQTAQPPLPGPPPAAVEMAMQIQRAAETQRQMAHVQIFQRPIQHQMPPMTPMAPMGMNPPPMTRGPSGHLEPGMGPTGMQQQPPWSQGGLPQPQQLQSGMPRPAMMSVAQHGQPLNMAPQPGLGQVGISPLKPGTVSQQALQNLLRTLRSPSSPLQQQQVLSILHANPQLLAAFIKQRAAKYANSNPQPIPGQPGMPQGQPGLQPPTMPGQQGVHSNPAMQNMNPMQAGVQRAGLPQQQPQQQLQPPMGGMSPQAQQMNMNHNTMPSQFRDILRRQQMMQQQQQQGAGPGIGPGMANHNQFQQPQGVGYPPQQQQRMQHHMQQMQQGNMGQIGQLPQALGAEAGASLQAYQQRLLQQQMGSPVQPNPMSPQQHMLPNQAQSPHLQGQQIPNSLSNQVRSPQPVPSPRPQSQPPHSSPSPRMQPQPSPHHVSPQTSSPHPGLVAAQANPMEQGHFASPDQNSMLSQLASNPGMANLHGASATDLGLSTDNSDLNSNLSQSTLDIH

Compound | Dmax [1] | DC50 [1] | DC50 [2] | Dmax [2]
Cc1cc(-c2ncc3c(n2)OCCN3c2ccc3c(c2)n(C)c(=O)n3C)cnc1C(=O)NCC#Cc1cc2c(C3CCC(=O)NC3=O)cccc2o1 (centres unmarked) [Example A173, 5-(5-(1,3-dimethyl-2-oxo-2,3-dihydro-1H-benzo[d]imidazol-5-yl)-6,7-dihydro-5H-pyrimido[4,5-b][1,4]oxazin-2-yl)-N-(3-(4-(2,6-dioxopiperidin-3-yl)benzofuran-2-yl)prop-2-yn-1-yl)-3-methylpicolinamide] | > 80% | 1 to 9.9 nM | > 1000 nM | < 20%
CC(C)c1cc(-c2cccc3cc(-c4ccc(C(=O)NCC#Cc5ccc6ncn(C7CCC(=O)NC7=O)c6c5)nc4)ncc23)cc2c1n(C)c(=O)n2C (centres unmarked) [Example A15, N-(3-(1-(2,6-Dioxopiperidin-3-yl)-1H-benzo[d]imidazol-6-yl)prop-2-yn-1-yl)-5-(8-(7-isopropyl-1,3-dimethyl-2-oxo-2,3-dihydro-1H-benzo[d]imidazol-5-yl)isoquinolin-3-yl)picolinamide] | > 80% | < 1 nM | > 1000 nM | < 20%
Cc1cc(-c2ncc(N(C)c3cc(C4CCOCC4)c4c(c3)n(C)c(=O)n4C)cn2)cnc1C(=O)NCC#Cc1ccc2occ(C3CCC(=O)NC3=O)c2c1 (centres unmarked) [Example A53, 5-(5-((1,3-dimethyl-2-oxo-7-(tetrahydro-2H-pyran-4-yl)-2,3-dihydro-1H-benzo[d]imidazol-5-yl)(methyl)amino)pyrimidin-2-yl)-N-(3-(3-(2,6-dioxo-piperidin-3-yl)benzofuran-5-yl)prop-2-yn-1-yl)-3-methylpicolinamide] | > 80% | < 1 nM | > 1000 nM | < 20%
CC(C)c1cc(N(C)c2cnc(-c3ccc(C(=O)NCC#Cc4ccc5cnn(C6CCC(=O)NC6=O)c5c4)nc3)nc2)cc2c1n(C)c(=O)n2C (centres unmarked) [Example A211, N-(3-(1-(2,6-dioxo-piperidin-3-yl)-1H-indazol-6-yl)prop-2-yn-1-yl)-5-(5-((7-isopropyl-1,3-dimethyl-2-oxo-2,3-dihydro-1H-benzo [d]imidazol-5-yl)(methyl)amino)pyrimidin-2-yl)picolinamide] | > 80% | 1 to 9.9 nM | > 1000 nM | < 20%
Cc1cc(N2CCOc3nc(-c4ccc(C(=O)NCC#Cc5cc6c(C7CCC(=O)NC7=O)cccc6o5)nc4)ncc32)cc2c1n(C)c(=O)n2C (centres unmarked) [Example A199, N-(3-(4-(2,6-dioxo-piperidin-3-yl)benzofuran-2-yl)prop-2-yn-1-yl)-5-(5-(1,3,7-trimethyl-2-oxo-2,3-dihydro-1H-benzo[d]imidazol-5-yl)-6,7-dihydro-5H-pyrimido[4,5-b] [1,4]oxazin-2-yl)picolinamide] | > 80% | 1 to 9.9 nM | 100 to 999 nM | < 20%
CN1CCN(c2ccc3c(c2)n(C)c(=O)n3C)c2cnc(-c3ccc(C(=O)NCC#Cc4ccc5occ(C6CCC(=O)NC6=O)c5c4)nc3)cc21 (centres unmarked) [Example A139, 5-(4-(1,3-dimethyl-2-oxo-2,3-dihydro-1H-benzo[d]imidazol-5-yl)-1-methyl-1,2,3,4-tetrahydropyrido[3,4-b]pyrazin-7-yl)-N-(3-(3-(2,6-dioxo-piperidin-3-yl)benzofuran-5-yl)prop-2-yn-1-yl)picolinamide] | > 80% | < 1 nM | > 1000 nM | < 20%
CC(C)c1cc(N2CCOc3nc(-c4ccc(C(=O)NCC#Cc5ccc6occ(C7CCC(=O)NC7=O)c6c5)nc4)ncc32)cc2c1n(C)c(=O)n2C (centres unmarked) [Example A89, N-(3-(3-(2,6-dioxo-piperidin-3-yl)benzofuran-5-yl)prop-2-yn-1-yl)-5-(5-(7-isopropyl-1,3-dimethyl-2-oxo-2,3-dihydro-1H-benzo[d]imidazol-5-yl)-6,7-dihydro-5H-pyrimido [4,5-b][1,4]oxazin-2-yl)picolinamide] | > 80% | > 1000 nM | > 1000 nM | < 20%
Cc1cc(-c2ncc3c(n2)CCCN3c2ccc3c(c2)n(C)c(=O)n3C)cnc1C(=O)NCC#Cc1ccc2occ(C3CCC(=O)NC3=O)c2c1 (centres unmarked) [Example A79, 5-(5-(1,3-dimethyl-2-oxo-2,3-dihydro-1H-benzo[d]imidazol-5-yl)-5,6,7,8-tetrahydropyrido[3,2-d]pyrimidin-2-yl)-N-(3-(3-(2,6-dioxo-piperidin-3-yl)benzofuran-5-yl)prop-2-yn-1-yl)-3-methylpicolinamide] | > 80% | 1 to 9.9 nM | > 1000 nM | < 20%
Cc1cc(-c2ncc(N(C)c3cc(C4CCOCC4)c4c(c3)n(C)c(=O)n4C)cn2)cnc1C(=O)NCC#Cc1ccc2occ([C@@H]3CCC(=O)NC3=O)c2c1 [Example A55, (S)-5-(5-((1,3-dimethyl-2-oxo-7-(tetrahydro-2H-pyran-4-yl)-2,3-dihydro-1H-benzo[d]imidazol-5-yl)(methyl)amino)pyrimidin-2-yl)-N-(3-(3-(2,6-dioxo-piperidin-3-yl)benzofuran-5-yl)prop-2-yn-1-yl)-3-methylpicolinamide] | > 80% | 1 to 9.9 nM | > 1000 nM | < 20%
Cn1c(=O)n(C)c2c(C3CC3)cc(-c3cccc4cc(-c5ccc(C(=O)NCC#Cc6cc7c(C8CCC(=O)NC8=O)cccc7o6)nc5)ncc34)cc21 (centres unmarked) [Example A261, 5-(8-(7-cyclopropyl-1,3-dimethyl-2-oxo-2,3-dihydro-1H-benzo[d]imidazol-5-yl)isoquinolin-3-yl)-N-(3-(4-(2,6-dioxopiperidin-3-yl)benzofuran-2-yl)prop-2-yn-1-yl)picolinamide] | > 80% | 1 to 9.9 nM | > 1000 nM | < 20%

Second part, the compound after the results:

Dmax [1] | DC50 [1] | DC50 [2] | Dmax [2] | Compound
> 80% | 1 to 9.9 nM | 10 to 99 nM | 20 to 39% | Cc1cc2c(N3CCOc4cc(-c5ccc(C(=O)NCC#Cc6ccc7occ(C8CCC(=O)NC8=O)c7c6)nc5)c(F)cc43)cc(N3CC(C)(O)C3)cc2n(C)c1=O (centres unmarked) [Example B63, N-(3-(3-(2,6-dioxopiperidin-3-yl)benzofuran-5-yl)prop-2-yn-1-yl)-5-(6-fluoro-4-(7-(3-hydroxy-3-methylazetidin-1-yl)-1,3-dimethyl-2-oxo-1,2-dihydroquinolin-5-yl)-3,4-dihydro-2H-benzo[b][1,4]oxazin-7-yl) picolinamide]
> 80% | 1 to 9.9 nM | > 1000 nM | < 20% | COc1cc(-c2ncc3c(n2)CCCN3c2cc(C3CCOCC3)cc3c2cc(C)c(=O)n3C)cnc1C(=O)NCC#Cc1ccc2occ(C3CCC(=O)NC3=O)c2c1 (centres unmarked) [Example B24, 5-(5-(1,3-dimethyl-2-oxo-7-(tetrahydro-2H-pyran-4-yl)-1,2-dihydroquinolin-5-yl)-5,6,7,8-tetrahydropyrido[3,2-d]pyrimidin-2-yl)-N-(3-(3-(2,6-dioxopiperidin-3-yl)benzofuran-5-yl)prop-2-yn-1-yl)-3-methoxypicolinamide]
> 80% | 1 to 9.9 nM | 1 to 9.9 nM | 60 to 79% | Cc1cc(-c2cc3cccc(-c4nc(N5CCOCC5)cc5c4cc(C)c(=O)n5C)c3cn2)cnc1C(=O)NCC#Cc1cc2c(C3CCC(=O)NC3=O)cccc2o1 (centres unmarked) [Example B167, 5-(8-(1,3-dimethyl-7-morpholino-2-oxo-1,2-dihydro-1,6-naphthyridin-5-yl)isoquinolin-3-yl)-N-(3-(4-(2,6-dioxopiperidin-3-yl)benzofuran-2-yl)prop-2-yn-1-yl)-3-methylpicolinamide]
20 to 39% | 1 to 9.9 nM | > 1000 nM | < 20% | CCc1cc(-c2cccc3cc(-c4ccc(C(=O)NCC#Cc5cc(NC6CCC(=O)NC6=O)nn5C)nc4)ncc23)c2cc(C)c(=O)n(C)c2c1 (centres unmarked) [Example B7, N-(3-(3-((2,6-Dioxopiperidin-3-yl)amino)-1-methyl-1H-pyrazol-5-yl)prop-2-yn-1-yl)-5-(8-(7-ethyl-1,3-dimethyl-2-oxo-1,2-dihydroquinolin-5-yl)isoquinolin-3-yl)picolinamide]
> 80% | 1 to 9.9 nM | 10 to 99 nM | 40 to 59% | CCc1cc(-c2cccc3cc(-c4ccc(C(=O)NCC#Cc5ccc6c(c5)n(C5CCC(=O)NC5=O)c(=O)n6C)nc4)ncc23)c2cc(C)c(=O)n(C)c2c1 (centres unmarked) [Example B8, N-(3-(3-(2,6-Dioxopiperidin-3-yl)-1-methyl-2-oxo-2,3-dihydro-1H-benzo[d]imidazol-5-yl)prop-2-yn-1-yl)-5-(8-(7-ethyl-1,3-dimethyl-2-oxo-1,2-dihydroquinolin-5-yl)isoquinolin-3-yl)picolinamide]
40 to 59% | 1 to 9.9 nM | > 1000 nM | < 20% | Cc1cc2c(N3CCCc4nc(-c5ccc(C(=O)NCC#Cc6ccc7occ(C8CCC(=O)NC8=O)c7c6)nc5)ncc43)cncc2n(C)c1=O (centres unmarked) [Example B69, 5-(5-(1,3-dimethyl-2-oxo-1,2-dihydro-1,7-naphthyridin-5-yl)-5,6,7,8-tetrahydropyrido [3,2-d]pyrimidin-2-yl)-N-(3-(3-(2,6-dioxo-piperidin-3-yl)benzofuran-5-yl)prop-2-yn-1-yl)picolinamide]
> 80% | < 1 nM | 100 to 999 nM | < 20% | Cc1cc2c(N3CCCc4nc(-c5ccc(C(=O)NCC#Cc6cc7c([C@H]8CCC(=O)NC8=O)cccc7o6)nc5)ncc43)nc(N3CCOCC3)cc2n(C)c1=O [Example B29, (R)-5-(5-(1,3-dimethyl-7-morpholino-2-oxo-1,2-dihydro-1,6-naphthyridin-5-yl)-5,6,7,8-tetrahydropyrido[3,2-d]pyrimidin-2-yl)-N-(3-(4-(2,6-dioxopiperidin-3-yl)benzofuran-2-yl)prop-2-yn-1-yl)picolinamide]

From patent US20250114345A1, “COMPOUNDS AND COMPOSITIONS AS CBP/P300 DEGRADERS AND USES THEREOF” (Oncopia Therapeutics, Inc. d/b/a/ SK Life Science Labs, priority 2023, published 2025)
